Data on 19 compounds can be found in US20160045531A1, “COMBINATION THERAPY FOR TREATING CANCER” (EPIZYME, INC., priority 2014, published 2016).

Each structure is given as a SMILES string.

Assay [1] has as its system MOLM-13 (MLL-AF9) cell line. The assay can be described thus: Combination proliferation study with Compound A2 (Example 1), MOLM-13. The class given is cell-based, human. Conditions: 7 Day Cotreatment; Chou-Talalay CI. The text has this: (§1) The acute myelogenous leukemia cell lines MV4-11 (MLL-AF4) and MOLM-13 (MLL-AF9) were obtained from American Type Culture Collection (ATCC; Rockville, Md.) and Deutsche Sammlung von Mikroorganismen and Zellkulturen (DSMZ; Braunschweig, Germany) respectively. […] Further, strong synergism is achieved when the CI value falls below 0.3.

The test system of assay [2] is MV4-11 (MLL-AF4) cell line. Put plainly: Combination proliferation study with Compound A2 (Example 1), MV4-11. The class given is cell-based, human. Particulars: 7 Day Cotreatment; Chou-Talalay CI.
Excerpt: as §1

For assay [3], the system named is SKM-1 (non-MLL-rearranged AML). Put plainly: Combination proliferation study with Compound A2 (Examples 2/3), SKM-1. It counts as cell-based, human. Particulars: in combination with Compound A2. How it is done:
(§2) The HP-D300 digital dispenser (Tecan) was used to dispense compounds in a combinatorial matrix. […] Cell viability was measured via ATP content using CellTiter-Glo® (Promega).
(§3) Viability was determined using CellTiter-Glo® (Promega).

The subject of a further assay is MOLM-13 (MLL-AF9). Put plainly: Proliferation assay and calculation of synergism (Example 5), MOLM-13. It counts as cell-based, human. Conditions: for Combination with Compound A2, pre-treatment model with washout, MOLM-13: Compound A2 washed out prior to the addition of the SOC agent; for Combination with Compound A2, pre-treatment model, MOLM-13: no Compound A2 washout; for Combination with Compound A2, MOLM-13 (MLL-AF9): 7 Day Cotreatment Model, Chou-Talalay CI.

For another assay, the system named is SKM-1 cells. The assay can be described thus: Proliferation assay and calculation of synergism (Example 5), SKM-1. Conditions: combination with Compound A2.
Assay [4] concerns MV4-11 (MLL-AF4 expressing acute biphenotypic leukemia cell line). The assay can be described thus: Combination proliferation study with Compound A2 (Examples 2/3), MV4-11. Conditions: in combination with Compound A2; Chou-Talalay CI. The class given is cell-based, human. How it is done:
as §2, §3

Assay [5] concerns Molm-13 (MLL-AF9 expressing acute myeloid leukemia). The assay can be described thus: Combination proliferation study with Compound A2 (Examples 2/3), MOLM-13. It counts as cell-based, human. Conditions: for Combination studies with Compound A2, MOLM-13 MLL-AF9: in combination with Compound A2, Chou-Talalay CI. How it is done: as §2, §3
The subject of a further assay is MV4-11 (MLL-AF4). The assay can be described thus: Proliferation assay and calculation of synergism (Example 5), MV4-11. Conditions: for Combination with Compound A2, pre-treatment model with washout, MV4-11: Compound A2 washed out prior to the addition of the SOC agent; for Combination with Compound A2, pre-treatment model, MV4-11: no Compound A2 washout; for Combination with Compound A2, MV4-11 (MLL-AF4): 7 Day Cotreatment Model, Chou-Talalay CI. The class given is cell-based, human.

Excerpt for SKM-1 cells: The acute myelogenous leukemia cell line MV4-11 (MLL-AF4) (CRL-9591) was obtained from American Type Culture Collection (ATCC), Manassas, Va. and both MOLM-13 (MLL-AF9) (ACC 554) and SKM-1 (ACC 547) cells were obtained from Leibniz Institute DSMZ-German Collection of Microorganisms and Cell Cultures, Braunschweig, Germany. MV4-11 cells were maintained in IMDM supplemented with 10% fetal bovine serum. MOLM-13 and SKM-1 cells were maintained in Roswell Park Memorial Institute medium (RPMI) supplemented with 10% fetal bovine serum. They were cultured in flasks or plates in a humidified 5% CO2 atmosphere.
Proliferation studies were performed using MOLM-13, MV4-11 and SKM-1 cell lines in vitro to evaluate the cancer cell killing effect of a combination of two agents together on cell growth. Initial proliferation studies were performed to determine the IC50 values of a given compound in each cell line. The cell counts were measured by ATP quantitation using the Promega Cell Titer Glo kit and luminescence values correspond to the amount of ATP in a given well.
These studies were performed to evaluate both the combinatorial effect of compounds on cell killing and the durability of the effect by washing out one of the agents.
Compounds evaluated for synergy in the co-treatment phase were tested in a range which was bracketed around the IC50's. The compounds were plated to a 96 well plate in a matrix format which includes increasing concentrations of each drug in the combination in a constant ratio, in addition to the effect of each compound alone in the study. […] Maximum and minimum inhibition (DMSO alone) controls were used in each plate to calculate fraction affected (Fa) of a test well. DMSO concentration was kept at 0.1% v/v. The drug combination analysis was performed utilizing the Chou-Talalay method. Synergy was determined using the software package Calcusyn by Biosoft. The combination index (CI) is the term used to describe the level of synergy or antagonism in a given test system. A combination index less than one indicates synergy, and a CI greater than one indicates antagonism.
The drug combination analysis was performed using the Chou-Talalay method. Graphs representing values of combination index (CI) versus Fractional effect (Fa) known as Fa-CI plots were generated and synergy was evaluated. Drug synergy was statistically defined by CI values less than 1, antagonism by CI>1 and additive effect by CI equal to 1.

Consider `N[C@@H]1C[C@H]1c1ccccc1` (racemic) [Tranylcypromine], for which the “Combination effect with Compound A2 on proliferation, MOLM-13” value in assay [1] is recorded as “synergy”. Also, the “Combination effect with Compound A2 on proliferation, MV4-11” value (“Combination effect … MV4-11” below) in assay [2] was “synergy”.

In the case of `Nc1ncn([C@@H]2O[C@H](CO)[C@@H](O)[C@H]2O)c(=O)n1` [Azacitidine, azacitidine], the “Combination studies with Compound A2, SKM-1 AML: Non-rearranged” value (“Combination studies … Non-rearranged” for short) in assay [3] is recorded as “No Combination”.

Turning to `COc1cccc2c1C(=O)c1c(O)c3c(c(O)c1C2=O)C[C@@](O)(C(C)=O)C[C@@H]3O[C@H]1C[C@H](N)[C@H](O)[C@H](C)O1` [Daunorubicin, daunorubicin], in the assay with MOLM-13 (MLL-AF9), the “Combination with Compound A2, pre-treatment model with washout, MOLM-13” value is “synergistic anti-proliferative activity was maintained” and the “Combination with Compound A2, pre-treatment model, MOLM-13” value is “synergistic antiproliferative activity”. The “Effect of Compound A2 on the antiproliferative activity of the second agent in SKM-1” value (shortened to “Effect of Compound A2”) in the assay with SKM-1 cells was “did not affect the antiproliferative activity”. The “Combination studies with Compound A2, MV4-11 MLL-AF4” value in assay [4] is “acts synergistically”. In addition, the “Combination studies with Compound A2, MOLM-13 MLL-AF9” value in assay [5] is “acts synergistically”. Moreover, the “Combination effect … MV4-11” value in assay [2] was “Synergy (A combination index less than one indicates synergy)”. Besides, in assay [3], the “Combination studies … Non-rearranged” value is given as “No Combination”. The “Combination studies … Non-rearranged” value in assay [3] (listed as daunorubicin) is recorded as “did not act synergistically”. Also, in the assay on MV4-11 (MLL-AF4), the “Combination with Compound A2, pre-treatment model with washout, MV4-11” value is “synergistic anti-proliferative activity was maintained” and the “Combination with Compound A2, pre-treatment model, MV4-11” value is “synergistic antiproliferative activity”.

Regarding `Nc1ncn([C@H]2C[C@H](O)[C@@H](CO)O2)c(=O)n1` [Decitabine, decitabine], the “Combination studies … Non-rearranged” value in assay [3] is recorded as “No Combination”.

On to `COc1cc2c(cc1-c1c(C)noc1C)ncc1[nH]c(=O)n([C@H](C)c3ccccn3)c12` [IBET-151], for which, in assay [2], the “Combination effect … MV4-11” value was “Synergy (A combination index less than one indicates synergy)”. Further, the “Combination studies … Non-rearranged” value in assay [3] is “IC50 not achieved”.

For the compound `Cc1sc2c(c1C)C(c1ccc(Cl)cc1)=N[C@@H](CC(=O)OC(C)(C)C)c1nnc(C)n1-2` [JQ1], the “Combination with Compound A2, MOLM-13 (MLL-AF9)” value (“Combination … (MLL-AF9)” for short) with MOLM-13 (MLL-AF9) was “Additive (additive effect by CI equal to 1)”. In addition, the “Combination with Compound A2, MV4-11 (MLL-AF4)” value (shortened to “Combination … (MLL-AF4)”) in the assay on MV4-11 (MLL-AF4) was “Additive (additive effect by CI equal to 1)”.

As for `Nc1cccc2c1CN(C1CCC(=O)NC1=O)C2=O` (stereo not drawn) [Lenalidomide, lenalidomide], the “Combination … (MLL-AF9)” value in the assay with MOLM-13 (MLL-AF9) is “Combination Benefit”. In the assay on MV4-11 (MLL-AF4), the “Combination … (MLL-AF4)” value is recorded as “Combination Benefit”.

As to `CN(Cc1cnc2nc(N)nc(N)c2n1)c1ccc(C(=O)N[C@@H](CCC(=O)O)C(=O)O)cc1` [Methotrexate, methotrexate], in the assay on MOLM-13 (MLL-AF9), the “Combination … (MLL-AF9)” value is reported as “Antagonistic/Additive”. Moreover, the “Combination … (MLL-AF4)” value in the assay on MV4-11 (MLL-AF4) is “Additive (additive effect by CI equal to 1)”.

Consider `O=C1c2c(O)ccc(O)c2C(=O)c2c(NCCNCCO)ccc(NCCNCCO)c21` [Mitoxantrone], for which the “Combination effect … MV4-11” value in assay [2] was “Synergy (A combination index less than one indicates synergy)”.

`CC1(C)CCC(c2ccc(Cl)cc2)=C(CN2CCN(c3ccc(C(=O)NS(=O)(=O)c4ccc(N[C@H](CCN5CCOCC5)CSc5ccccc5)c(S(=O)(=O)C(F)(F)F)c4)cc3)CC2)C1` [Navitoclax]: the “Combination effect with Compound A2 on proliferation, MOLM-13” value in assay [1] is reported as “synergy”. In assay [2], the “Combination effect … MV4-11” value is on record as “synergy”.

For the compound `Cc1[nH]c2ccccc2c1CCNCc1ccc(/C=C/C(=O)NO)cc1` [Panobinostat], the “Combination … (MLL-AF4)” value in the assay with MV4-11 (MLL-AF4) is on record as “Antagonistic (antagonism by CI>1)”.

Take `C[C@]12C=CC(=O)C=C1CC[C@@H]1[C@@H]2[C@@H](O)C[C@@]2(C)[C@H]1CC[C@]2(O)C(=O)CO` [Prednisolone, prednisolone]: in the assay on MOLM-13 (MLL-AF9), the “Combination … (MLL-AF9)” value was “Antagonistic (antagonism by CI>1)”. Further, the “Combination … (MLL-AF4)” value in the assay on MV4-11 (MLL-AF4) was “Antagonistic (antagonism by CI>1)”.

As to `CC(C)(C)c1cc(NC(=O)Nc2ccc(-c3cn4c(n3)sc3cc(OCCN5CCOCC5)ccc34)cc2)no1` [Quizartinib], the “Combination effect … MV4-11” value in assay [2] is “synergy”.

Take `CC(C)C[C@H](NC(=O)[C@H](Cc1ccccc1)NC(=O)c1cnccn1)B(O)O` [Velcade, bortezomib]: in the assay with MOLM-13 (MLL-AF9), the “Combination … (MLL-AF9)” value was “Combination Benefit”. For the same compound, the “Combination … (MLL-AF4)” value with MV4-11 (MLL-AF4) was “Combination Benefit”.

Turning to `Nc1ncn([C@@H]2O[C@H](CO)[C@@H](O)[C@H]2O)c(=O)n1` [Vidaza], the “Combination effect … MV4-11” value in assay [2] is “Synergy (A combination index less than one indicates synergy)”.

On to `CC[C@]1(O)C[C@H]2CN(CCc3c([nH]c4ccccc34)[C@@](C(=O)OC)(c3cc4c(cc3OC)N(C=O)[C@H]3[C@@](O)(C(=O)OC)[C@H](OC(C)=O)[C@]5(CC)C=CCN6CC[C@]43[C@@H]65)C2)C1` [Vincristine, vincristine], for which, in the assay on MOLM-13 (MLL-AF9), the “Combination … (MLL-AF9)” value is “Additive (additive effect by CI equal to 1)”. Also, the “Combination … (MLL-AF4)” value in the assay on MV4-11 (MLL-AF4) is given as “Additive (additive effect by CI equal to 1)”.

Take `O=C(CCCCCCC(=O)Nc1ccccc1)NO` [Vorinostat]: in the assay on MOLM-13 (MLL-AF9), the “Combination … (MLL-AF9)” value was “Additive/Synergy”. For the same compound, the “Combination … (MLL-AF4)” value in the assay with MV4-11 (MLL-AF4) is “Antagonistic (antagonism by CI>1)”.

As to `Nc1ncn([C@@H]2O[C@H](CO)[C@@H](O)[C@H]2O)c(=O)n1` [azacytidine, Azacytidine], the “Combination … (MLL-AF9)” value in the assay on MOLM-13 (MLL-AF9) is given as “synergistic anti-proliferative activity”. Besides, in the assay with SKM-1 cells, the “Effect of Compound A2” value was “no impact on the antiproliferative activity”. Moreover, in the assay with MV4-11 (MLL-AF4), the “Combination … (MLL-AF4)” value is on record as “synergistic anti-proliferative activity”.

As for `Nc1ccn([C@@H]2O[C@H](CO)[C@@H](O)[C@@H]2O)c(=O)n1` [cytarabine], in the assay with MOLM-13 (MLL-AF9), the “Combination with Compound A2, pre-treatment model with washout, MOLM-13” value is on record as “synergistic anti-proliferative activity was maintained” and the “Combination with Compound A2, pre-treatment model, MOLM-13” value was “synergistic antiproliferative activity”. In the assay on SKM-1 cells, the “Effect of Compound A2” value was “did not affect the antiproliferative activity”. Also, in assay [4], the “Combination studies with Compound A2, MV4-11 MLL-AF4” value is recorded as “acts synergistically”. Moreover, the “Combination with Compound A2, Compound A2 removed at day 7” value in assay [5] (Molm-13, Compound A2 removed at day 7 prior to cytarabine) is recorded as “durable combination benefit”. In addition, the “Combination studies with Compound A2, MOLM-13 MLL-AF9” value in assay [5] is “acts synergistically”. In assay [3], the “Combination studies … Non-rearranged” value is “did not act synergistically”. Further, in the assay with MV4-11 (MLL-AF4), the “Combination with Compound A2, pre-treatment model with washout, MV4-11” value is “synergistic anti-proliferative activity was maintained” and the “Combination with Compound A2, pre-treatment model, MV4-11” value is given as “synergistic antiproliferative activity”.
